Read-outs that look alike come from different tables or passages of the source.
Assays:
[1] = biological target: Ae. aegypti NPYLR7 (Aedes aegypti, UniProt U5N1H5); experiment: In vitro calcium (GCaMP6s) FLIPR assay in HEK293T cells transfected with NPYLR7; assay type: cell-based
Procedure, shortened: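 HEK293T cells transiently co-transfected with GCaMP6s, mouse Gqα15 and NPYLR7; FLIPR imaging every second for 5 min, compound (0–100 μM) added after 30 s baseline in HBSS + 20 mM HEPES. Response normalized to buffer (0%) and 10 μM FMRFa3 (100%); relative EC50 by four-parameter fit, replicates averaged.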

[2] = system: Aedes aegypti (Orlando strain) females; experiment: Host-seeking screening assay (miniport olfactometer); assay type: in vivo; details: fed 1 μM in saline, tested 48 h post-meal; per-compound value of Fig. 3C
Procedure, shortened: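 Fasted Orlando-strain females fed saline meals (400 mM NaHCO3) with 1 mM ATP and test compound at 1 μM final via warmed membrane feeders; lethality counted 24 h post-meal. At 48 h, attraction to human-scented stocking plus 5% CO2 scored over 5 min, normalized to matched saline-fed controls.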

[3] = system: Aedes aegypti (Orlando strain) females; experiment: Glytube feeding: females feeding to repletion and weight per female (meal palatability); assay type: in vivo; details: Supplemental Figure 1 Panel A; compounds of Fig 3; individual replicate values
Experimental: Groups of 60–150 females were placed in bucket cages with a diameter of 21.6 cm and height of 16.5 cm (VWR) and fasted with access to water for 24 h prior to feeding. Meals were delivered to females via Glytube membrane feeders as described previously. Meals consisted of 1.5 ml sheep blood (HemoStat Laboratories), saline (400 mM NaHCO3 + dih2O), or saline and test compound. Lyophilized compounds were stored at room temperature until use. High-concentration stocks (30 mM in 100% dimethyl sulfoxide [DMSO]) (Sigma-Aldrich) were stored at −20 °C and diluted in saline immediately prior to feeding. Once prepared, meals and glycerol heating elements were warmed in a 42 °C water bath for 15 min to provide warmth to attract mosquitos to feed. ATP (1 mM final concentration) and test compounds (1 μM final concentration) were added prior to placing the meal on top of the mesh on the cage containing female mosquitos. Females were allowed 15–20 min to feed to repletion. Abdominal engorgement was scored by eye and confirmed by weighing females to ensure full feeding (Data S1). […] Females were returned to their original cage with a diH2O wick for 48 h prior to behavioral testing. The lethality of each compound was measured by counting the number of dead females in each cage 24 h post-meal.
Supplementary file 13071_2024_6347_MOESM1_ESM.png: Supplementary Material 1: Figure 1. […] (A) Percent of females feeding to repletion and (B) weight per female after feeding on the indicated meal used for testing in Miniport olfactometer experiments in Figure 3B. (C) Percent of females feeding to repletion and (D) weight per female after feeding on the indicated meal used for testing in live host assays in Figure 4. Data are shown as mean with standard deviation. n = 2–22 replicate cages, 60–150 females/cage. Females were weighed in groups of five to ensure reliable readings. Kruskal–Wallis with Dunn’s multiple comparisons to saline-fed group, ns P > 0.01, * P < 0.01, *** P < 0.0001. (PNG 321 KB)

Chain of Ae. aegypti NPYLR7 (U5N1H5 entry or part of it): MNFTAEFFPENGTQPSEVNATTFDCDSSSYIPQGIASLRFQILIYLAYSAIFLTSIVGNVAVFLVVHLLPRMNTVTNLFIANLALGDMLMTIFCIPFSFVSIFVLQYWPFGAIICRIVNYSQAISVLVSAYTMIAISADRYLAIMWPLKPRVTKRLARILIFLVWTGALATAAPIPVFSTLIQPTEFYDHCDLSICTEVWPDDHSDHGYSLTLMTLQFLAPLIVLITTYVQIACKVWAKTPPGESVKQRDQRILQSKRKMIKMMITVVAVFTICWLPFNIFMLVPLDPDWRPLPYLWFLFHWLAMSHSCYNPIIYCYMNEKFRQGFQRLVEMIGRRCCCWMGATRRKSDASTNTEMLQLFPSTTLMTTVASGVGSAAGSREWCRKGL

With `CCOc1ccc(COc2ccc3c(C)nc(NC(=N)N)nc3c2)cc1` [TDI-014176] the EC50 ([1]; EC50 of the individual assay date/plate (assay date), read-out: EC50) was 6.35 µM, the EC50 ([1]; Figure 1E Summary, second list (n = 48), read-out: Reported Metric (Summary list)) was 6.35 µM and the activation at 0.0017 µM ([1]; HEK-293T, 0.0017 uM, single replicate, normalised response) was 4.15%. It also gave an activation at 0.0051 µM ([1]; HEK-293T, 0.0051 uM, single replicate, normalised response) of 3.37%, an activation at 11.1111 µM ([1]; HEK-293T, 11.1111 uM, single replicate, normalised response) of 88% and an activation at 33.3333 µM ([1]; HEK-293T, 33.3333 uM, single replicate, normalised response) of 131%. For the same compound, the activation at 100 µM ([1]; HEK-293T, 100 uM, single replicate of the dose-response curve, normalised response) was 133%, the EC50 ([1]; relative EC50, percent effect relative to 10 μM FMRFa3, read-out: EC50) was 6.35 µM and the EC50 ([1]; sheet Figure 3C, unit inferred, read-out: EC50) was 6.35 µM. The EC50 ([1]; summary EC50 per compound (mean over assay dates), the unit is taken from the neighbouring EC50 (uM) column, read-out: Reported Metric) was 6.35 µM, the “Attraction (relative to saline)” value [2] was 0.74 and the “% feeding (females feeding to repletion)” value [3] was 58.02%.

Reference: paper PMC11212260, “Next-generation neuropeptide Y receptor small-molecule agonists inhibit mosquito-biting behavior” (Parasites & Vectors, 2024)
